The values below come from US8729089B2 (Gilead Sciences, Inc., priority 2006, dated 2014).

Series [1] in a line: CC50 assay (CellTiter-Glo) in Huh-7 HCV replicon cells. The settings on record: human, 3 days incubation, CellTiter-Glo readout. It is filed as cell-based, human. In a few lines:
(§1)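 Cytotoxicity (CC50) measured by CellTiter-Glo and antiviral activity (EC50) by luciferase signal from lysed cells, both by luminescence. Replicon-bearing Huh-7 cells, 6000 per well, incubated 3 days at 37 °C with threefold-diluted compound (0.5% DMSO for DMSO-dissolved compounds).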
(In general: ATP-based viability assays read luminescence as a measure of living cells.)

For series [2], the system named is HCV replicon in human hepatoma Huh-7 cell line. Nature of the series: Anti-HCV replicon assay (EC50, luciferase). As to conditions: Hepatitis C virus, Huh-7, 72 h. It counts as cell-based. The procedure, abridged:
as §1
In general terms: Replicon systems follow genome replication, usually without infectious particles.

Turning to `COCCOc1nc(NCc2ccc(S(N)(=O)=O)cc2)nc2ccc(-c3ccc(F)cc3)nc12` [Example 237, 4-{[6-(4-Fluoro-phenyl)-4-(2-methoxy-ethoxy)-pyrido[3,2-d]pyrimidin-2-ylamino]-methyl}-benzenesulfonamide], the CC50 (commonly the concentration that lowers cell viability or growth by half) at 3 days in series [1] is less than 5 µM. For the same compound, in series [2], the EC50 (commonly the midpoint of the concentration-response curve) is less than 0.1 µM.

As to `NS(=O)(=O)c1cccc(CNc2nc(NCC(F)(F)F)c3nc(-c4ccc(F)cc4)ccc3n2)c1` [Example 238, 3-{[6-(4-Fluoro-phenyl)-4-(2,2,2-trifluoro-ethylamino)-pyrido[3,2-d]pyrimidin-2-ylamino]-methyl}-benzenesulfonamide], the CC50 at 3 days in series [1] was less than 5 µM. Also, the EC50 in series [2] is less than 0.1 µM.

`Fc1ccc(-c2ccc3nc(NCc4ccc(N5CCCC5)cc4)nc(NCC(F)(F)F)c3n2)cc1` [Example 239, 6-(4-Fluoro-phenyl)-N2-(4-pyrrolidin-1-yl-benzyl)-N4-(2,2,2-trifluoro-ethyl)-pyrido[3,2-d]pyrimidine-2,4-diamine] gave a CC50 at 3 days in series [1] of 5 to 25 µM. For the same compound, the EC50 in series [2] is less than 0.1 µM.

In turn, `CN1CCN(c2ccc(CNc3nc(NCC(F)(F)F)c4nc(-c5ccc(F)cc5)ccc4n3)cc2)CC1` [Example 240, 6-(4-Fluoro-phenyl)-N2-[4-(4-methyl-piperazin-1-yl)-benzyl]-N4-(2,2,2-trifluoro-ethyl)-pyrido[3,2-d]pyrimidine-2,4-diamine] registered a CC50 at 3 days in series [1] of less than 5 µM. For the same compound, the concentration for a half-maximal effect (EC50) in series [2] is less than 0.1 µM.

In series [1], `CS(=O)(=O)Nc1ccc(CNc2nc(NCC(F)(F)F)c3nc(-c4ccc(F)cc4)ccc3n2)cc1` [Example 241, N-(4-{[6-(4-Fluoro-phenyl)-4-(2,2,2-trifluoro-ethylamino)-pyrido[3,2-d]pyrimidin-2-ylamino]-methyl}-phenyl)-methanesulfonamide] registered a CC50 at 3 days of 5 to 25 µM. The EC50 in series [2] is less than 0.1 µM.

For `CN(C)C(=O)c1ccc(CNc2nc(NCC(F)(F)F)c3nc(-c4ccc(F)cc4)ccc3n2)cc1` [Example 242, 4-{[6-(4-Fluoro-phenyl)-4-(2,2,2-trifluoro-ethylamino)-pyrido[3,2-d]pyrimidin-2-ylamino]-methyl}-N,N-dimethyl-benzamide], in series [1], the CC50 at 3 days is more than 25 µM. Further, the EC50 in series [2] was less than 0.1 µM.

For `Fc1ccc(-c2ccc3nc(NCc4ccccn4)nc(NCC(F)(F)F)c3n2)cc1` [Example 243, 6-(4-Fluoro-phenyl)-N2-pyridin-2-ylmethyl-N4-(2,2,2-trifluoro-ethyl)-pyrido[3,2-d]pyrimidine-2,4-diamine], in series [1], the CC50 at 3 days lay in the range of 5 to 25 µM. This compound also registered an EC50 in series [2] of less than 0.1 µM.

Turning to `Fc1ccc(-c2ccc3nc(NCc4cccnc4)nc(NCC(F)(F)F)c3n2)cc1` [Example 244, 6-(4-Fluoro-phenyl)-N2-pyridin-3-ylmethyl-N4-(2,2,2-trifluoro-ethyl)-pyrido[3,2-d]pyrimidine-2,4-diamine], in series [1], the CC50 at 3 days lay within 5 to 25 µM. Also, the EC50 in series [2] is less than 0.1 µM.

The compound `Fc1ccc(-c2ccc3nc(NCc4ccc(-c5csnn5)cc4)nc(NCC(F)(F)F)c3n2)cc1` [Example 245, 6-(4-Fluoro-phenyl)-N2-(4-[1,2,3]thiadiazol-4-yl-benzyl)-N4-(2,2,2-trifluoro-ethyl)-pyrido[3,2-d]pyrimidine-2,4-diamine] showed a CC50 at 3 days in series [1] of more than 25 µM. This compound displayed an EC50 in series [2] of less than 0.1 µM.

In the case of `NS(=O)(=O)c1ccc(CNc2nc(NCC(F)(F)F)c3nc(-c4ccc(F)cc4)ccc3n2)c(F)c1` [Example 246, 3-Fluoro-4-{[6-(4-fluoro-phenyl)-4-(2,2,2-trifluoro-ethylamino)-pyrido[3,2-d]pyrimidin-2-ylamino]-methyl}-benzenesulfonamide], the half-maximal cytotoxic concentration (CC50) at 3 days in series [1] is 5 to 25 µM. Moreover, the EC50 in series [2] was less than 0.1 µM.

In series [1], `Fc1ccc(-c2ccc3nc(NCc4nnco4)nc(NCC(F)(F)F)c3n2)cc1` [Example 247, 6-(4-Fluoro-phenyl)-N2-[1,3,4]oxadiazol-2-ylmethyl-N4-(2,2,2-trifluoro-ethyl)-pyrido[3,2-d]pyrimidine-2,4-diamine] returned a CC50 at 3 days of 5 to 25 µM. In series [2], this compound registered an EC50 of less than 0.1 µM.
